From US20260365647A1, “AKT1 MODULATORS” (Alterome Therapeutics, Inc., priority 2022, published 2026)

What follows are compounds tested against T1, AKT1-E17K (Homo sapiens, UniProt P31749, E17K) (assay: NanoBRET Target Engagement (TE) Assay).
T1 construct: host or cells: HEK-293 (ATCC CRL-1573)
T1 sequence (P31749 whole entry E17K): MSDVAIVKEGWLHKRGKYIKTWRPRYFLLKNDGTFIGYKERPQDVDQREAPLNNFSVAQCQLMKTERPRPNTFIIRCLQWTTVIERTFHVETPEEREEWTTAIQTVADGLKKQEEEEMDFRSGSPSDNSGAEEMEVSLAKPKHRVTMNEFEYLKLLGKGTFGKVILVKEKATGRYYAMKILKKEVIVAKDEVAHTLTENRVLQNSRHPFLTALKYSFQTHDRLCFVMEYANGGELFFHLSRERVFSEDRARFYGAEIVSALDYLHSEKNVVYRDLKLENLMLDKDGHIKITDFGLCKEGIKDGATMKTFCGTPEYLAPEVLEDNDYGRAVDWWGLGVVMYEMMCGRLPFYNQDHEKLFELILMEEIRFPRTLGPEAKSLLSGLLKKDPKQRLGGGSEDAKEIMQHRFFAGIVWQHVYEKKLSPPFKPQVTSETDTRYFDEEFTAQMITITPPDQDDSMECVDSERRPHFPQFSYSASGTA
Format: cell-based
Method in brief: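 Live cells transiently expressing NanoLuc-AKT1 E17K fusion, incubated 2 h with tracer and compound before substrate plus extracellular NanoLuc inhibitor were added. BRET read at 450/600 nm; EC50 from variable-slope sigmoidal fit of tracer displacement.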
With `Nc1ncccc1-c1nc2ccc(-c3ccccc3)nc2n1-c1ccc(CN2CCC3(CC2)CCN(C(=O)c2ccc(C=O)c(O)c2)C3)cc1` [Example 75, 4-(8-(4-(2-(2-Aminopyridin-3-yl)-5-phenyl-3H-imidazo[4,5-b]pyridin-3-yl)benzyl)-2,8-diazaspiro[4.5]decane-2-carbonyl)-2-hydroxybenzaldehyde] the IC50 was 60 to 600 nM. For `Nc1ncccc1-c1nc2ccc(N3CCOCC3)nc2n1-c1ccc(CN2CCN(C(=O)c3ccc(C=O)c(O)c3)CC2)cc1` [Example 33, 4-(4-(4-(2-(2-Aminopyridin-3-yl)-5-morpholino-3H-imidazo[4,5-b]pyridin-3-yl)benzyl)piperazine-1-carbonyl)-2-hydroxybenzaldehyde], the IC50 was > 600 nM. In the case of `Nc1ncccc1-c1nc2ccc(N3CCOCC3)nc2n1-c1ccc(CN2CCN(C(=O)c3ccc(O)c(C=O)c3)CC2)cc1` [Example 32, 5-(4-(4-(2-(2-Aminopyridin-3-yl)-5-morpholino-3H-imidazo[4,5-b]pyridin-3-yl)benzyl)piperazine-1-carbonyl)-2-hydroxybenzaldehyde], the IC50 is reported as > 600 nM. Work on `Nc1ncccc1-c1nc2ccc(-c3ccccc3)nc2n1-c1ccc(CN2CCC3(CCN(c4ccc(O)c(C=O)c4)C3)C2)cc1` (centres unmarked) [Example 83, 5-(7-(4-(2-(2-Aminopyridin-3-yl)-5-phenyl-3H-imidazo[4,5-b]pyridin-3-yl)benzyl)-2,7-diazaspiro[4.4]nonan-2-yl)-2-hydroxybenzaldehyde] yielded an IC50 of 60 to 600 nM. In the case of `Nc1ncccc1-c1nc2ccc(-c3ccccc3)nc2n1-c1ccc(CN2CCC3(CCCN(C(=O)c4ccc(O)c(C=O)c4)C3)C2)cc1` (centres unmarked) [Example 86, 5-(2-(4-(2-(2-Aminopyridin-3-yl)-5-phenyl-3H-imidazo[4,5-b]pyridin-3-yl)benzyl)-2,7-diazaspiro[4.5]decane-7-carbonyl)-2-hydroxybenzaldehyde], the IC50 is reported as 60 to 600 nM. In the case of `Nc1ncccc1-c1nc2ccc(-c3ccccc3)nc2n1-c1ccc(CN2CC3(CC(NC(=O)c4ccc(C=O)c(O)c4)C3)C2)cc1` [Example 70, N-(2-(4-(2-(2-Aminopyridin-3-yl)-5-phenyl-3H-imidazo[4,5-b]pyridin-3-yl)benzyl)-2-azaspiro[3.3]heptan-6-yl)-4-formyl-3-hydroxybenzamide], the IC50 is reported as 60 to 600 nM. `Nc1ncccc1-c1nc2ccc(-c3ccccc3)nc2n1-c1ccc(CN2CCN(c3cc(O)c(C=O)cc3Br)CC2)cc1` [Example 27, 4-(4-(4-(2-(2-Aminopyridin-3-yl)-5-phenyl-3H-imidazo[4,5-b]pyridin-3-yl)benzyl)piperazin-1-yl)-5-bromo-2-hydroxybenzaldehyde] showed an IC50 of 60 to 600 nM. `Nc1ncccc1-c1nc2ccc(-c3ccccc3)nc2n1-c1ccc(CN2CCC(Nc3ccc(C=O)c(O)c3)CC2)cc1` [Example 47, 4-((1-(4-(2-(2-Aminopyridin-3-yl)-5-phenyl-3H-imidazo[4,5-b]pyridin-3-yl)benzyl)piperidin-4-yl)amino)-2-hydroxybenzaldehyde] was tested, and the IC50 was 60 to 600 nM. Compound `Nc1ncccc1-c1nc2ccc(-c3ccccc3)nc2n1-c1ccc(CN2CC3CCC2CN3C(=O)c2ccc(C=O)c(O)c2)cc1` (centres unmarked) [Example 125, 4-(5-(4-(2-(2-aminopyridin-3-yl)-5-phenyl-3H-imidazo[4,5-b]pyridin-3-yl)benzyl)-2,5-diazabicyclo[2.2.2]octane-2-carbonyl)-2-hydroxybenzaldehyde] has an IC50 of 60 to 600 nM. `Nc1ncccc1-c1nc2ccc(-c3ccccc3)nc2n1-c1ccc(CN2CC[C@@]3(CCN(c4ccc(C=O)c(O)c4)C3)C2)cc1` [Example 100, (R)-4-(7-(4-(2-(2-Aminopyridin-3-yl)-5-phenyl-3H-imidazo[4,5-b]pyridin-3-yl)benzyl)-2,7-diazaspiro[4.4]nonan-2-yl)-2-hydroxybenzaldehyde] showed an IC50 of 60 to 600 nM. In the case of `Nc1ncccc1-c1nc2ccc(-c3ccccc3)nc2n1-c1ccc(CN2C[C@@H]3C[C@H]2CN3C(=O)c2ccc(O)c(C=O)c2)cc1` [Example 121, 5-((1S,4S)-5-(4-(2-(2-Aminopyridin-3-yl)-5-phenyl-3H-imidazo[4,5-b]pyridin-3-yl)benzyl)-2,5-diazabicyclo[2.2.1]heptane-2-carbonyl)-2-hydroxybenzaldehyde], the IC50 is reported as 60 to 600 nM. With `N#Cc1ccc(-c2ccc3nc(-c4cccnc4N)n(-c4ccc(CN5CCN(C(=O)c6ccc(O)c(C=O)c6)CC5)cc4)c3n2)cc1` [Example 38, 4-(2-(2-Aminopyridin-3-yl)-3-(4-((4-(3-formyl-4-hydroxybenzoyl)piperazin-1-yl)methyl)phenyl)-3H-imidazo[4,5-b]pyridin-5-yl)benzonitrile] the IC50 was 60 to 600 nM. With `Nc1ncccc1-c1nc2ccc(-c3ccccc3)nc2n1-c1ccc(COc2cccc(O)c2C=O)cc1` [Example 137, 2-((4-(2-(2-Aminopyridin-3-yl)-5-phenyl-3H-imidazo[4,5-b]pyridin-3-yl)benzyl)oxy)-6-hydroxybenzaldehyde] the IC50 was > 600 nM. Work on `CN(C(=O)c1ccc(O)c(C=O)c1)C1CCN(Cc2ccc(-n3c(-c4cccnc4N)nc4ccc(-c5ccccc5)nc43)cc2)CC1` [Example 55, N-(1-(4-(2-(2-Aminopyridin-3-yl)-5-phenyl-3H-imidazo[4,5-b]pyridin-3-yl)benzyl)piperidin-4-yl)-3-formyl-4-hydroxy-N-methylbenzamide] yielded an IC50 of 15 to 60 nM. Compound `Nc1ncccc1-c1nc2ccc(-c3ccccc3)nc2n1-c1ccc(CN2CC[C@@]3(CCN(C(=O)c4ccc(C=O)c(O)c4)C3)C2)cc1` [Example 99, (R)-4-(7-(4-(2-(2-aminopyridin-3-yl)-5-phenyl-3H-imidazo[4,5-b]pyridin-3-yl)benzyl)-2,7-diazaspiro[4.4]nonane-2-carbonyl)-2-hydroxybenzaldehyde] has an IC50 of 60 to 600 nM. `C[C@H]1CN(Cc2ccc(-n3c(-c4cccnc4N)nc4ccc(-c5ccccc5)nc43)cc2)CCN1c1ccc(C=O)c(O)c1` [Example 107, (S)-4-(4-(4-(2-(2-aminopyridin-3-yl)-5-phenyl-3H-imidazo[4,5-b]pyridin-3-yl)benzyl)-2-methylpiperazin-1-yl)-2-hydroxybenzaldehyde] gave an IC50 of 60 to 600 nM. In the case of `Nc1ncccc1-c1nc2ccc(-c3ccc[nH]c3=O)nc2n1-c1ccc(CN2CCN(C(=O)c3ccc(C=O)c(O)c3)CC2)cc1` [Example 15, 4-(4-(4-(2-(2-Aminopyridin-3-yl)-5-(2-oxo-1,2-dihydropyridin-3-yl)-3H-imidazo[4,5-b]pyridin-3-yl)benzyl)piperazine-1-carbonyl)-2-hydroxybenzaldehyde], the IC50 is reported as > 600 nM. For `Nc1ncccc1-c1nc2ccc(-c3ccccc3)nc2n1-c1ccc(CN2CCC3(CC2)CN(C(=O)c2ccc(C=O)c(O)c2)C3)cc1` [Example 71, 4-(7-(4-(2-(2-Aminopyridin-3-yl)-5-phenyl-3H-imidazo[4,5-b]pyridin-3-yl)benzyl)-2,7-diazaspiro[3.5]nonane-2-carbonyl)-2-hydroxybenzaldehyde], the IC50 was > 600 nM. For `Nc1ncccc1-c1nc2ccc(-c3ccccc3)nc2n1-c1ccc(CN2CCN(c3cccc(C=O)c3O)CC2)cc1` [Example 23, 3-(4-(4-(2-(2-aminopyridin-3-yl)-5-phenyl-3H-imidazo[4,5-b]pyridin-3-yl)benzyl)piperazin-1-yl)-2-hydroxybenzaldehyde], the IC50 was 60 to 600 nM. Work on `Nc1ncccc1-c1nc2ccc(-c3ccccc3)nc2n1-c1ccc(CN2CCC(N(C(=O)c3ccc(O)c(C=O)c3)C3CC3)CC2)cc1` [Example 12, N-(1-(4-(2-(2-aminopyridin-3-yl)-5-phenyl-3H-imidazo[4,5-b]pyridin-3-yl)benzyl)piperidin-4-yl)-N-cyclopropyl-3-formyl-4-hydroxybenzamide] yielded an IC50 of 60 to 600 nM.
